Test results taken from US8350027B2, “Dual-acting pyrazole antihypertensive agents” (Theravance, Inc., priority 2009, dated 2013).

Experiments:
NEP enzyme = molecular target: T1, NEP enzyme (Homo sapiens, UniProt P08473); test: NEP enzyme inhibition assay (fluorogenic peptide substrate); format: biochemical; settings: values given as lower bounds; * = prodrugs, may not exhibit NEP activity in an in vitro assay; read-out: NEP pIC50 (converted)
T1 construct: purchased R&D Systems, Minneapolis, Minn; 1182-ZN
Description: B. In Vitro Assays for the Quantitation of Inhibitor Potencies (IC50) at Human and Rat NEP, and Human ACE
The inhibitory activities of compounds at human and rat NEP and human ACE were determined using in vitro assays as described below.
Recombinant human NEP and recombinant human ACE were obtained commercially (R&D Systems, Minneapolis, Minn., catalog numbers 1182-ZN and 929-ZN, respectively). The fluorogenic peptide substrate Mca-BK2 (Mca-Arg-Pro-Pro-Gly-Phe-Ser-Ala-Phe-Lys(Dnp)-OH; Johnson et al. (2000) Anal. Biochem. 286: 112-118) was used for the human NEP and ACE assays, and Mca-RRL (Mca-DArg-Arg-Leu-(Dnp)-OH; Medeiros et al. (1997) Braz. J. Med. Biol. Res. 30:1157-1162) was used for the rat NEP assay (both from Anaspec, San Jose, Calif.).
The assays were performed in 384-well white opaque plates at room temperature using the respective fluorogenic peptides at a concentration of 10 μM in assay buffer (50 mM Tris/HCl at 25° C., 100 mM NaCl, 0.01% Tween-20, 1 μM Zn, 0.025% BSA). […] The rat NEP enzyme preparation was used at a concentration that yielded quantitative proteolysis of 3 μM of Mca-RRL within 20 minutes at room temperature.
Test compounds were diluted to 12 concentrations from 10 μM to 20 pM in Assay Buffer. Assays were started by adding 25 μL of enzyme to 12.5 μL of test compound at each of the 12 concentrations. Test compounds were allowed to equilibrate with the enzyme for 10 minutes before 12.5 μL of the fluorogenic substrates were added to initiate the reaction. Reactions were terminated by the addition of 10 μL of 3.6% glacial acetic acid after 20 minutes of incubation.
For sulfhydryl-containing test compounds, the test compounds may be diluted in Assay Buffer containing a 400 μM concentration of tris(2-carboxyethyl)phosphine hydrochloride (Thermo Scientific, Rockford, Ill.) (TCEP). The test compounds are then incubated for 40 minutes at room temperature (to allow for dimer cleavage) before adding the enzyme. Test compounds are then allowed to equilibrate with the enzyme for 20 minutes before adding the fluorogenic substrates. Reactions are terminated as above.
Plates were read on a fluorometer with excitation and emission wavelengths set to 320 nm and 405 nm, respectively. Raw data (relative fluorescence units) were normalized to % activity from the average high readings (no inhibition, 100% enzyme activity) and average low readings (full inhibition, highest inhibitor concentration, 0% enzyme activity) using three standard NEP and ACE inhibitors, respectively. Nonlinear regression of the normalized data was performed using a one site competition model (GraphPad Software, Inc., San Diego, Calif.). Data were reported as pIC50 values.

human AT1 receptor = molecular target: T2, human AT1 receptor (Homo sapiens, UniProt P30556); test: AT1 radioligand binding assay (displacement of [Eu]AngII); settings: membranes of CHO-K1 cells expressing cloned human AT1 receptor; values given as lower bounds; read-out: AT1 pKi (converted)
T2 construct: expressed in transfected cells; host or cells: CHO-K1
T2 sequence (P30556 1-359): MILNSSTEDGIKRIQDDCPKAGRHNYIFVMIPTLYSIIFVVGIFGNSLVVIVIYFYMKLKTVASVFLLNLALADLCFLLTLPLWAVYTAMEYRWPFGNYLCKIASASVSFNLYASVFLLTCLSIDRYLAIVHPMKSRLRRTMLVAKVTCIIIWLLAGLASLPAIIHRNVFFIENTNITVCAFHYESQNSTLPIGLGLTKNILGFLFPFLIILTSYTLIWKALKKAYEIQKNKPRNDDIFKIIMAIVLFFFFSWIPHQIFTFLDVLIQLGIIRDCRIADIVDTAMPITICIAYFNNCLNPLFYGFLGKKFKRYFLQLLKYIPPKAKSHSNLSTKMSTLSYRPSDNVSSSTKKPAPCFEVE
Description: A. AT1 and AT2 Radioligand Binding Assays
These in vitro assays were used to assess the ability of test compounds to bind to the AT1 and the AT2 receptors.
Membrane Preparation from Cells Expressing Human AT1 or AT2 Receptors
Chinese hamster ovary (CHO-K1) derived cell lines stably expressing the cloned human AT1 or AT2 receptors, respectively, were grown in HAM's-F12 medium supplemented with 10% fetal bovine serum, 10 μg/ml penicillin/streptomycin, and 500 μg/ml geneticin in a 5% CO2 humidified incubator at 37° C. AT2 receptor expressing cells were grown in the additional presence of 100 nM PD123,319 (AT2 antagonist). When cultures reached 80-95% confluence, the cells were washed thoroughly in PBS and lifted with 5 mM EDTA. Cells were pelleted by centrifugation and snap frozen in MeOH-dry ice and stored at −80° C. until further use.
For membrane preparation, cell pellets were resuspended in lysis buffer (25 mM Tris/HCl pH 7.5 at 4° C., 1 mM EDTA, and one tablet of Complete Protease Inhibitor Cocktail Tablets with 2 mM EDTA per 50 mL buffer (Roche cat.#1697498, Roche Molecular Biochemicals, Indianapolis, Ind.)) and homogenized using a tight-fitting Dounce glass homogenizer (10 strokes) on ice. The homogenate was centrifuged at 1000×g, the supernatant was collected and centrifuged at 20,000×g. The final pellet was resuspended in membrane buffer (75 mM Tris/HCl pH 7.5, 12.5 mM MgCl2, 0.3 mM EDTA, 1 mM EGTA, 250 mM sucrose at 4° C.) and homogenized by extrusion through a 20G gauge needle. Protein concentration of the membrane suspension was determined by the method described in Bradford (1976) Anal Biochem. 72:248-54. Membranes were snap frozen in MeOH-dry ice and stored at −80° C. until further use.
Ligand Binding Assay to Determine Compound Affinities for the Human AT1 and AT2 Angiotensin Receptors
Binding assays were performed in 96-well Acrowell filter plates (Pall Inc., cat.#5020) in a total assay volume of 100 μL with 0.2 μg membrane protein for membranes containing the human AT1 receptor, or 2 μg membrane protein for membranes containing the human AT2 receptor in assay buffer (50 mM Tris/HCl pH 7.5 at 20° C., 5 mM MgCl2, 25 μM EDTA, 0.025% BSA). Saturation binding studies for determination of Kd values of the ligand were done using N-terminally Europium-labeled angiotensin-II ([Eu]AngII, H-(Eu-N^1)-Ahx-Asp-Arg-Val-Tyr-Ile-His-Pro-Phe-OH; PerkinElmer, Boston, Mass.) at 8 different concentrations ranging from 0.1 nM to 30 nM. […] Drugs were dissolved to a concentration of 1 mM in DMSO and from there serially diluted into assay buffer. Non-specific binding was determined in the presence of 10 μM unlabeled angiotensin-II. Assays were incubated for 120 minutes in the dark, at room temperature or 37° C., and binding reactions were terminated by rapid filtration through the Acrowell filter plates followed by three washes with 200 μL ice cold wash buffer (50 mM Tris/HCl pH 7.5 at 4° C., 5 mM MgCl2) using a Waters filtration manifold. Plates were tapped dry and incubated with 50 μl DELFIA Enhancement Solution (PerkinElmer cat.#4001-0010) at room temperature for 5 minutes on a shaker. Filter-bound [Eu]AngII was quantitated immediately on a Fusion plate reader (PerkinElmer) using Time Resolved Fluorescence (TRF). Binding data were analyzed by nonlinear regression analysis with the GraphPad Prism Software package (GraphPad Software, Inc., San Diego, Calif.) using the 3-parameter model for one-site competition. The BOTTOM (curve minimum) was fixed to the value for nonspecific binding, as determined in the presence of 10 μM angiotensin II. Ki values for drugs were calculated from observed IC50 values and the Kd value of [Eu]AngII according to the Cheng-Prusoff equation described in Cheng et al. (1973) Biochem Pharmacol. 22 (23):3099-108. Selectivities of test compounds for the AT1 receptor over the AT2 receptor were calculated as the ratio of AT2Ki/AT1Ki. […]

T1 sequence (P08473 52-750 limits assumed): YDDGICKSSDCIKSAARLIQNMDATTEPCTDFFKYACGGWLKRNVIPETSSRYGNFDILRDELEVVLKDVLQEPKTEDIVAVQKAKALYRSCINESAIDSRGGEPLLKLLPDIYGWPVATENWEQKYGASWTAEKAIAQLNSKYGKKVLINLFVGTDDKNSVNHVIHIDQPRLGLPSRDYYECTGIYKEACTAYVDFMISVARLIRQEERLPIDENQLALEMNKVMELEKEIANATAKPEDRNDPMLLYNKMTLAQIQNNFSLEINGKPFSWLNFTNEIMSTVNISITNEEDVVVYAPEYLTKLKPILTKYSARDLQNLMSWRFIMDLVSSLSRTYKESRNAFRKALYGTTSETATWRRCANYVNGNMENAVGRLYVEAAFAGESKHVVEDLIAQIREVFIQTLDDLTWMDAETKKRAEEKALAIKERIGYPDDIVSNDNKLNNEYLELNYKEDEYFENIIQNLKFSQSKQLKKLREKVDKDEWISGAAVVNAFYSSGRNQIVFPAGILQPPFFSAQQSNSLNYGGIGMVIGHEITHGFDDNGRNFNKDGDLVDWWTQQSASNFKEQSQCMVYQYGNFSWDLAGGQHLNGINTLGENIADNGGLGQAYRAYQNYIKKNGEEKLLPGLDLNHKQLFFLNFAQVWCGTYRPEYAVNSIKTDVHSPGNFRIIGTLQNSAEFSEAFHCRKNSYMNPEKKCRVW

Compound | IC50 (NEP enzyme) [µM] | Ki (human AT1 receptor) [µM]
CCCc1cc(C(=O)N[C@@H](CC(=O)O)Cc2ccccc2Cl)nn1Cc1cnc(-c2ccccc2-c2nnn[nH]2)nc1 [Example 18, (R)-4-(2-Chlorophenyl)-3-[(5-propyl-1-{2-[2-(1H-tetrazol-5-yl)phenyl]pyrimidin-5-ylmethyl}-1H-pyrazole-3-carbonyl)amino]butyric acid] | ≤ 1 | ≤ 0.1
CCCc1cc(C(=O)N[C@@H](CC(=O)OC)Cc2ccccc2)nn1Cc1ccc(-c2ccccc2-c2nnn[nH]2)cc1 [Example 3-27, (R)-4-Phenyl-3-({5-propyl-1-[2′-(1H-tetrazol-5-yl)-biphenyl-4-ylmethyl]-1H-pyrazole-3-carbonyl}amino)butyric acid methyl ester] | ≤ 10 | ≤ 0.01
CCCc1cc(C(=O)N[C@@H](CC(=O)O)Cc2ccccc2Cl)nn1Cc1ccc(-c2ccccc2S(=O)(=O)NC(C)=O)nc1 [Example 14-14, (R)-3-({1-[6-(2-Acetylsulfamoylphenyl)-pyridin-3-ylmethyl]-5-propyl-1H-pyrazole-3-carbonyl}-amino)-4-(2-chlorophenyl)butyric acid] | ≤ 1 | ≤ 0.01
CCCc1cc(C(=O)N[C@H](Cc2ccccc2)[C@@H](O)C(=O)O)nn1Cc1ccc(-c2ccccc2S(=O)(=O)NC(=O)C(C)(C)N)cc1 [Example 7-19, (2R,3R)-3-({1-[2′-(2-Amino-2-methylpropionylsulfamoyl)biphenyl-4-ylmethyl]-5-propyl-1H-pyrazole-3-carbonyl}amino)-2-hydroxy-4-phenylbutyric acid] | ≤ 1 | ≤ 0.1
CCCc1cc(C(=O)N[C@@H](CC(=O)O)Cc2ccccc2C)nn1Cc1ccc(-c2ccccc2S(=O)(=O)NC(C)=O)cc1 [Example 6-26, (R)-3-{[1-(2′-Acetylsulfamoylbiphenyl-4-ylmethyl)-5-propyl-1H-pyrazole-3-carbonyl]amino}-4-o-tolylbutyric acid] | ≤ 1 | ≤ 0.01
CCCc1cc(C(=O)N[C@H](Cc2ccccc2)[C@@H](O)C(=O)O)nn1Cc1ccc(-c2ccccc2S(=O)(=O)NC(=O)NC)cc1 [Example 7-11, (2R,3R)-2-hydroxy-3-(1-((2′-(N-(methylcarbamoyl)sulfamoyl)biphenyl-4-yl)methyl)-5-propyl-1H-pyrazole-3-carboxamido)-4-phenylbutanoic acid] | ≤ 0.1 | ≤ 0.01
CCOc1cc(C(=O)N[C@H](Cc2ccccc2)[C@@H](O)C(=O)O)nn1Cc1ccc(-c2ccccc2-c2nnn[nH]2)cc1 [Example 3-9, (2R,3R)-3-({5-Ethoxy-1-[2′-(1H-tetrazol-5-yl)biphenyl-4-ylmethyl]-1H-pyrazole-3-carbonyl}amino)-2-hydroxy-4-phenylbutyric acid] | ≤ 1 | ≤ 0.1
CCCc1cc(C(=O)N[C@@H](CC(=O)OC)Cc2ccccc2Cl)nn1Cc1ccc(-c2ccccc2-c2nnn[nH]2)cc1 [Example 3-28, (R)-4-(2-Chlorophenyl)-3-({5-propyl-1-[2′-(1H-tetrazol-5-yl)biphenyl-4-ylmethyl]-1H-pyrazole-3-carbonyl}amino)butyric acid methyl ester] | ≤ 10 | ≤ 0.01
CCCc1cc(C(=O)N[C@@H](CC(=O)O)Cc2ccccc2F)nn1Cc1ccc(-c2ccccc2-c2nnn[nH]2)cc1 [Example 3-33, (R)-4-(2-Fluorophenyl)-3-({5-propyl-1-[2′-(1H-tetrazol-5-yl)biphenyl-4-ylmethyl]-1H-pyrazole-3-carbonyl}amino)butyric acid] | ≤ 10 | ≤ 0.01
CCOc1cc(C(=O)N[C@H](Cc2ccccc2)[C@@H](O)C(=O)O)nn1Cc1ccc(-c2ccccc2S(=O)(=O)NC(C)=O)cc1F [Example 6-4, (2R,3R)-3-{[1-(2′-Acetylsulfamoyl-3-fluorobiphenyl-4-ylmethyl)-5-ethoxy-1H-pyrazole-3-carbonyl]amino}-2-hydroxy-4-phenylbutyric acid] | ≤ 0.1 | ≤ 0.01
CCCc1cc(C(=O)N[C@H](Cc2ccccc2)CN(O)C=O)nn1Cc1ccc(-c2ccccc2-c2nnn[nH]2)cc1 [Example 3-14, 5-Propyl-1-[2′-(1H-tetrazol-5-yl)-biphenyl-4-ylmethyl]-1H-pyrazole-3-carboxylic acid [(R)-1-benzyl-2-(formylhydroxyamino)ethyl]amide] | ≤ 0.1 | ≤ 0.01
CCCc1cc(C(=O)N[C@@H](CC(=O)O)Cc2ccccc2Cl)nn1Cc1cnc(-c2ccccc2-c2nnn[nH]2)cn1 [Example 17-2, (R)-4-(2-Chlorophenyl)-3-[(5-propyl-1-{5-[2-(1H-tetrazol-5-yl)phenyl]pyrazin-2-ylmethyl}-1H-pyrazole-3-carbonyl)amino]butyric acid] | ≤ 1 | ≤ 0.01
